Where two headings read alike, the source gives them in different places.
Legend:
[1] = tested on: duplex-form calf thymus DNA (CT-DNA); experiment: Thermal denaturation studies with calf thymus DNA (DNA binding affinity); conditions: [PBD]:[DNA] 1:5, CT-DNA 100 μM, ligand 20 μM, pH 7.00
Method: Compounds have been subjected to thermal denaturation studies with duplex-form calf thymus DNA (CT-DNA) using an modification of a reported procedure (Newman, M. S. Carcinog-compr. Surv. 1976,1, 203; (b) Hecht, S. S.; Loy, M.; Hoffman, Carcinog-compr. Surv. 1976, 1, 325). Working solutions in aqueous buffer (10 mM NaH2PO4/Na2HPO4, 1 mM Na2EDTA, pH 7.00+0.01) containing CT-DNA (100 μm in phosphate) and the PBD (20 μm) have been prepared by addition of concentrated PBD solutions in DMSO to obtain a fixed [PBD]/[DNA] molar ratio of 1:5. The DNA-PBD solutions have been incubated at 37° C. for 0 and 18 h prior to analysis. Samples have been monitored at 260 using a Beckman DU-800 spectrophotometer fitted with high performance temperature controller, and heated at 1° C. min^−1 in the 40-110° C. range. DNA helix→coil transition temperatures (Tm) have been obtained from the maxima in the d(A260)/dT derivative plots. Drug-induced alterations in DNA melting behavior are given by: ΔTm=Tm(DNA+PBD)−Tm(DNA alone), where the Tm value for the PBD-free CT-DNA is 69.1±0.01.
The DNA binding activity for these novel C8-linked benzothiazole, benzoxazole-PBD hybrids has been examined by thermal denaturation studies using calf thymus (CT) DNA. […] The data for the compounds 9a-n is included in Table 7 for comparison.

[2] = tested on: A 2780 (ovary cancer) cell line; experiment: cells; type: cell-based; conditions: Homo sapiens, A2780, 48 h; for GI50: read-out: GI50 A 2780, 48 h drug exposure, SRB, mean of three determinations; for CC50: read-out: LC50 A 2780, 50% cell death, 48 h drug exposure, SRB
Method: (§1) Anticancer activity: In vitro biological activity studies were carried out at the Advance Center for Treatment Research & Education in Cancer (ACTREC), Navi Mumbai.
(§2) The compounds were evaluated for in vitro anticancer activity against eight tumour cells lines derived from seven cancer types (non-small-cell lung, colon, oral, cervix, ovarian, prostate, and breast cancer) as shown in Table 2. For each compound, dose response curves for each cell line were measured at a minimum of five concentrations at 10 fold dilutions. A protocol of 48 h continuous drug exposure was used and a sulforhodamine B (SRB) protein assay was used to estimate cell viability or growth. The concentration causing 50% cell growth inhibition (GI50) and 50% cell death (LC50, −50% growth) compared with the control was calculated. Compounds 9a-9l have been evaluated for their in vitro cytotoxicity in eight cell lines from seven human cancer types of lung (Hop-62, A-549) colon (COLO-205) cervix (Si—Ha), ovary (A-2780), prostate (PC3) breast (MCF7), oral (KB). The results are expressed as percent of cell growth determined relative to that of untreated control cells (Table-8 and table-9).

[3] = tested on: A 549 (lung cancer) cell line; experiment: cells; type: cell-based; conditions: Homo sapiens, A549, 48 h; for GI50: read-out: GI50 A 549, 48 h drug exposure, SRB, mean of three determinations; for CC50: read-out: LC50 A 549, 50% cell death, 48 h drug exposure, SRB
Method: as §1, §2

[4] = tested on: Colo 205 (colon cancer) cell line; experiment: cells; type: cell-based; conditions: Homo sapiens, COLO 205, 48 h; for GI50: read-out: GI50 Colo 205, 48 h drug exposure, SRB, mean of three determinations; for CC50: read-out: LC50 Colo 205
Method: as §1, §2

[5] = tested on: HOP 62 (lung cancer) cell line; experiment: cells; type: cell-based; conditions: for GI50: mean of three determinations; for LC50: read-out: LC50 HOP 62, 50% cell death
Method: as §1, §2

[6] = tested on: MCF 7 (breast cancer) cell line; experiment: cells; type: cell-based; conditions: Homo sapiens, MCF7, 48 h; for GI50: read-out: GI50 MCF 7; for LC50 (concentration causing 50% cell death): read-out: LC50 MCF 7, 50% cell death, 48 h drug exposure, SRB
Method: as §1, §2

[7] = tested on: PC 3 (prostate cancer) cell line; experiment: cells; type: cell-based; conditions: Homo sapiens, 48 h; for GI50: read-out: GI50 PC 3; for CC50: read-out: LC50 Pc 3, 50% cell death, 48 h drug exposure, SRB
Method: as §1, §2

[8] = tested on: SiHa (cervix cancer) cell line; experiment: cells; type: cell-based; conditions: Homo sapiens, SiHa, 48 h; for GI50: read-out: GI50 SiHa, 48 h drug exposure, SRB, mean of three determinations; for LC50 (concentration causing 50% cell death): read-out: LC50 SiHa, 50% cell death, 48 h drug exposure, SRB
Method: as §1, §2

[9] = tested on: KB (oral cancer) cell line; experiment: In vitro anticancer activity, SRB assay, KB; type: cell-based, human; conditions: Homo sapiens, 48 h; for GI50: read-out: GI50 KB, 48 h drug exposure, SRB, mean of three determinations; for CC50: read-out: LC50 KB, 50% cell death, 48 h drug exposure, SRB
Method: as §1, §2

[10] = tested on: eight tumour cells lines derived from seven cancer types; experiment: In vitro anticancer activity, SRB assay, panel of eight cell lines; type: cell-based; conditions: Homo sapiens, range over the eight cell lines per compound; read-out: GI50 range against cancer cell lines
Method: as §1, §2

[11] = Homo sapiens, HOP-62, 48 h, read-out: GI50 HOP 62, 48 h drug exposure, SRB
[12] = Homo sapiens, HOP-62, 48 h, 48 h drug exposure, SRB

COc1cc(-c2nc3ccccc3s2)ccc1OCCCN1CCN(CCCOc2cc3c(cc2OC)C(=O)N2CCC[C@H]2C=N3)CC1 [Compound 9b]
ΔTm after incubation at 37° C. for 0 h [1]: 12.1 °C
ΔTm after incubation at 37° C. for 18 h [1]: 12.7 °C
GI50 [2]: < 10 nM
CC50 [2]: 120 nM
GI50 [3]: 120 nM
CC50 [3]: > 100000 nM
GI50 [4]: 90 nM
CC50 [4]: > 100000 nM
GI50 [5, 11]: < 10 nM
LC50 [5, 12]: 28000 nM
GI50 [6]: < 10 nM
LC50 (concentration causing 50% cell death) [6]: < 10 nM
GI50 [7]: < 10 nM
CC50 [7]: 2400 nM
GI50 [8]: < 10 nM
LC50 (concentration causing 50% cell death) [8]: 2400 nM
GI50 [9]: < 10 nM
CC50 [9]: 2200 nM
GI50 [10]: ≤ 120 nM

COc1cc2c(cc1OCCCN1CCN(CCCOc3ccc(-c4nc5ccc(F)cc5s4)cc3)CC1)N=C[C@@H]1CCCN1C2=O [Compound 9c]
ΔTm after incubation at 37° C. for 0 h [1]: 10.3 °C
ΔTm after incubation at 37° C. for 18 h [1]: 10.7 °C
GI50 [2]: 116 nM
CC50 [2]: 2300 nM
GI50 [3]: < 10 nM
CC50 [3]: 33000 nM
GI50 [4]: 130 nM
CC50 [4]: > 100000 nM
GI50 [5, 11]: 110 nM
LC50 [5, 12]: 29000 nM
GI50 [6]: < 10 nM
LC50 (concentration causing 50% cell death) [6]: 170 nM
GI50 [7]: 110 nM
CC50 [7]: 2300 nM
GI50 [8]: 130 nM
LC50 (concentration causing 50% cell death) [8]: 27000 nM
GI50 [9]: 110 nM
CC50 [9]: 26000 nM
GI50 [10]: ≤ 130 nM

COc1cc2c(cc1OCCCN1CCN(CCCOc3cccc(-c4nc5ccccc5s4)c3)CC1)N=C[C@@H]1CCCN1C2=O [Compound 9d, 7-Methoxy-8-[3-(4-{3-[3(1,3-benzothiazol-2-yl)-phenoxy]propyl}piperazin-1-yl)propyl]oxy-(11aS)-1,2,3,11a-tetrahydro-5H-pyrrolo[2,1-c][1,4]benzodiazepin-5-one]
ΔTm after incubation at 37° C. for 0 h [1]: 11.2 °C
ΔTm after incubation at 37° C. for 18 h [1]: 11.5 °C
GI50 [2]: 99 nM
CC50 [2]: 2400 nM
GI50 [3]: < 10 nM
CC50 [3]: > 100000 nM
GI50 [4]: 110 nM
CC50 [4]: > 100000 nM
GI50 [5, 11]: < 10 nM
LC50 [5, 12]: 27000 nM
GI50 [6]: 10 nM
LC50 (concentration causing 50% cell death) [6]: 2100 nM
GI50 [7]: < 10 nM
CC50 [7]: 28000 nM
GI50 [8]: 120 nM
LC50 (concentration causing 50% cell death) [8]: 26000 nM
GI50 [9]: 110 nM
CC50 [9]: 2300 nM
GI50 [10]: ≤ 120 nM

COc1cc2c(cc1OCCCCN1CCN(CCCCOc3ccc(-c4nc5ccc(F)cc5s4)cc3)CC1)N=C[C@@H]1CCCN1C2=O [Compound 9g, 7-Methoxy-8-[4-(4-{4-[4(6-fluoro-1,3-benzothiazol-2-yl)-phenoxy]butyl}piperazin-1-yl)butyl]oxy-(11aS)-1,2,3,11a-tetrahydro-5H-pyrrolo[2,1-c][1,4]benzodiazepin-5-one]
ΔTm after incubation at 37° C. for 0 h [1]: 12.3 °C
ΔTm after incubation at 37° C. for 18 h [1]: 12.6 °C
GI50 [2]: 147 nM
CC50 [2]: 2250 nM
GI50 [3]: < 10 nM
CC50 [3]: > 100000 nM
GI50 [4]: 100 nM
CC50 [4]: > 100000 nM
GI50 [5, 11]: 160 nM
LC50 [5, 12]: > 100000 nM
GI50 [6]: 140 nM
LC50 (concentration causing 50% cell death) [6]: 2400 nM
GI50 [7]: 160 nM
CC50 [7]: 31000 nM
GI50 [8]: 168 nM
LC50 (concentration causing 50% cell death) [8]: 311 nM
GI50 [9]: 160 nM
CC50 [9]: > 100000 nM
GI50 [10]: ≤ 168 nM

COc1cc2c(cc1OCCCN1CCN(CCCOc3ccc(-c4nc5ccccc5o4)cc3)CC1)N=C[C@@H]1CCCN1C2=O [Compound 9i]
ΔTm after incubation at 37° C. for 0 h [1]: 9.5 °C
ΔTm after incubation at 37° C. for 18 h [1]: 9.7 °C
GI50 [2]: 80 nM
CC50 [2]: 2250 nM
GI50 [3]: < 10 nM
CC50 [3]: > 100000 nM
GI50 [4]: < 10 nM
CC50 [4]: > 100000 nM
GI50 [5, 11]: 110 nM
LC50 [5, 12]: 27000 nM
GI50 [6]: < 10 nM
LC50 (concentration causing 50% cell death) [6]: 150 nM
GI50 [7]: < 10 nM
CC50 [7]: 230 nM
GI50 [8]: 117 nM
LC50 (concentration causing 50% cell death) [8]: 28500 nM
GI50 [9]: < 10 nM
CC50 [9]: 28000 nM
GI50 [10]: ≤ 117 nM

COc1cc(-c2nc3ccccc3o2)ccc1OCCCN1CCN(CCCOc2cc3c(cc2OC)C(=O)N2CCC[C@H]2C=N3)CC1 [Compound 9j]
ΔTm after incubation at 37° C. for 0 h [1]: 10.1 °C
ΔTm after incubation at 37° C. for 18 h [1]: 10.3 °C
GI50 [2]: < 10 nM
CC50 [2]: 139 nM
GI50 [3]: < 10 nM
CC50 [3]: > 100000 nM
GI50 [4]: 110 nM
CC50 [4]: > 100000 nM
GI50 [5, 11]: < 10 nM
LC50 [5, 12]: 2300 nM
GI50 [6]: < 10 nM
LC50 (concentration causing 50% cell death) [6]: < 10 nM
GI50 [7]: < 10 nM
CC50 [7]: 2500 nM
GI50 [8]: < 10 nM
LC50 (concentration causing 50% cell death) [8]: 28000 nM
GI50 [9]: < 10 nM
CC50 [9]: 200 nM
GI50 [10]: ≤ 110 nM

COc1cc2c(cc1OCCCN1CCN(CCCOc3cccc(-c4nc5ccccc5o4)c3)CC1)N=C[C@@H]1CCCN1C2=O [Compound 9k, 7-Methoxy-8-[3-(4-{3-[3(1,3-benzoxazol-2-yl)-phenoxy]propyl}piperazin-1-yl)propyl]oxy-(11aS)-1,2,3,11a-tetrahydro-5H-pyrrolo[2,1-c][1,4]benzodiazepin-5-one]
ΔTm after incubation at 37° C. for 0 h [1]: 9.7 °C
ΔTm after incubation at 37° C. for 18 h [1]: 10.2 °C
GI50 [2]: 86 nM
CC50 [2]: 2160 nM
GI50 [3]: < 10 nM
CC50 [3]: > 100000 nM
GI50 [4]: 170 nM
CC50 [4]: > 100000 nM
LC50 [5, 12]: 25000 nM
GI50 ([5]; read-out: GI50 HOP 62, 48 h drug exposure, SRB): 10 nM
GI50 [6]: < 10 nM
LC50 (concentration causing 50% cell death) [6]: 2600 nM
GI50 [7]: < 10 nM
CC50 [7]: 26000 nM
GI50 [8]: 130 nM
LC50 (concentration causing 50% cell death) [8]: 27800 nM
GI50 [9]: 110 nM
GI50 [10]: ≤ 170 nM
